Reference: ChEMBL document CHEMBL3098026, “Synthesis and SAR of novel isoxazoles as potent c-jun N-terminal kinase (JNK) inhibitors” (Bioorg Med Chem Lett, 2014)
Values belong to the compound of their own block, whether it stands above or below them.

Tests used:
[1] = Stability in human microsomes; assay type: ADME, Microsome
Rattus norvegicus = experiment: Oral bioavailability in Sprague-Dawley rat at 2 mg/kg; assay type: ADME, organism-based; conditions: in vivo
[2] = Cmax in Sprague-Dawley rat at 2 mg/kg, po; assay type: ADME, organism-based; design: dose 2 mg/kg, route oral; conditions: in vivo
[3] = AUC in Sprague-Dawley rat at 2 mg/kg, po; assay type: ADME, organism-based; design: dose 2 mg/kg, route oral; conditions: plasma
[4] = Volume of distribution in Sprague-Dawley rat at 1 mg/kg, iv and 2 mg/kg, po; assay type: ADME, organism-based; conditions: in vivo
[5] = Half life in Sprague-Dawley rat at 1 mg/kg, iv and 2 mg/kg, po; assay type: ADME, organism-based; conditions: in vivo
[6] = Plasma clearance in Sprague-Dawley rat at 1 mg/kg, iv and 2 mg/kg, po; assay type: ADME, organism-based

Stability [1]: Unstable
Structure (SMILES): Oc1onc(-c2ccnc(Nc3ccc(N4CCOCC4)cc3)c2)c1-c1ccc(F)cc1

Structure (SMILES): Cc1ncn(-c2ccc(Nc3cc(-c4nocc4-c4cnn(C)c4)ccn3)cc2)n1
F (Rattus norvegicus): 37% | Cmax [2]: 1.5 µM | AUC [3]: 5000 nM·h | Vd [4]: 0.4 L/kg | half-life [5]: 1.5 h | clearance [6]: 0.36 L/h/kg

Structure (SMILES): Cc1ncn(-c2ccc(Nc3cc(-c4nocc4-c4cn[nH]c4C)ccn3)cc2)n1
F (Rattus norvegicus): 12% | Cmax [2]: 0.3 µM | AUC [3]: 700 nM·h | Vd [4]: 0.4 L/kg | half-life [5]: 1.8 h | clearance [6]: 0.78 L/h/kg
